How the values were obtained:
[1] = Excretion route at therapeutic oral dose levels; type: in vivo; details: mainly excreted via the liver
[2] = tested on: Zucker Diabetic Fatty (ZDF) rats (ZDF/Crl-Lepr^fa); assay: Oral glucose tolerance test in overnight fasted 15-weeks old male ZDF rats (highly insulin-resistant model); type: in vivo, rat; details: 15-weeks old ZDF rats; single oral dose 3 mg/kg 30 min before glucose load 2 g/kg; versus vehicle control
Description: According to a second example an oral glucose tolerance test is performed in overnight fasted 15-weeks old male Zucker Diabetic Fatty (ZDF) rats (ZDF/Crl-Lepr^fa). This aged ZDF rats serve as a highly insulin-resistant animal model. A pre-dose blood sample is obtained by tail bleed. Blood glucose is measured with a glucometer, and the animals are randomized for blood glucose (n=5/group). […] The animals receive an oral glucose load (2 g/kg) 30 min after compound administration. Blood glucose is measured in tail blood 30 min, 60 min, 90 min, 120 min, and 180 min after the glucose challenge. Glucose excursion is quantified by calculating the reactive glucose AUC. The data are presented as mean±SEM. The two-sided unpaired Student t-test is used for statistical comparison of the control group and the active groups as well as between active groups.

[3] = tested on: Zucker Diabetic Fatty (ZDF) rats (ZDF/Crl-Lepr^fa); assay: Oral glucose tolerance test in overnight fasted 9-weeks old male ZDF rats; type: in vivo, rat; details: 9-weeks old ZDF rats; single oral dose 3 mg/kg 30 min before glucose load 2 g/kg; versus vehicle control
Description: According to a first example an oral glucose tolerance test is performed in overnight fasted 9-weeks old male Zucker Diabetic Fatty (ZDF) rats (ZDF/Crl-Lepr^fa). A pre-dose blood sample is obtained by tail bleed. Blood glucose is measured with a glucometer, and the animals are randomized for blood glucose (n=5/group). […] The animals receive an oral glucose load (2 g/kg) 30 min after compound administration. Blood glucose is measured in tail blood 15 min, 30 min, 60 min, and 90 min after the glucose challenge. Glucose excursion is quantified by calculating the reactive glucose AUC. The data are presented as mean±SEM. The two-sided unpaired Student t-test is used for statistical comparison of the control group and the active groups as well as between active groups.

Which “excretion via the kidney” value [1] does the source give for `CC#CCn1c(N2CCC[C@@H](N)C2)nc2c1c(=O)n(Cc1nc(C)c3ccccc3n1)c(=O)n2C` [Cpd. A, 1-[(4-methyl-quinazolin-2-yl)methyl]-3-methyl-7-(2-butyn-1-yl)-8-(3-(R)-amino-piperidin-1-yl)-xanthine] here?
Its value is < 7 % of the administered oral dose.

And the “reduction of glucose excursion (reactive glucose AUC)” value [2]?
Its value is 1%.

And the “reduction of glucose excursion (reactive glucose AUC)” value [3]?
Its value is 49%.
